Results published in patent publication US20030091620A1, “Transdermal drug delivery systems containing quaternary ammonium salts and methods of using the same” (priority 1999, published 2003).
Where two headings read alike, the source gives them in different places.

Key:
[1] = tested on: bacterial count on the skin; settings: cited from earlier work
E3 organism [2] = experiment: Zone of Inhibition testing of paper discs saturated with aqueous antimicrobial solutions; assay type: cell-based, gram-positive, coagulase-negative cocci
Procedure: In this experiment, the effectiveness of various topical antimicrobial agents against the E3 organism was determined using Zone of Inhibition testing of paper discs saturated with aqueous antimicrobial solutions.

E3 organism [3] = experiment: Zone of Inhibition testing of antimicrobial-loaded transdermal matrix disks; assay type: cell-based, gram-positive, coagulase-negative cocci
Procedure: These patches were cut into 1 cm^2 disks and subjected to Zone of Inhibition testing against the E3 organism with 24-hour incubation.
In the next experiment, placebo matrix patches (18 cm^2 area) were manufactured for a clinical wear study.

[4] = In vitro skin flux from PSA matrix patches and hydroalcoholic gels (modified Franz diffusion cells); settings: 24-hour skin flux of the drug from Morstick 214 PSA patch with 1% BzthCl, relative to 0% enhancer
Procedure: In vitro skin flux studies were conducted on epidermal membranes (stratum corneum and epidermis) obtained from whole human cadaver skin (epidermal membrane and dermis) by the heat-separation method of Kligman & Christopher, 88 Arch. […] This method consists of immersion of the whole skin for 60 seconds in water at 60° C., followed by mechanical separation of the epidermal and dermal layers. After separation, the epidermal membrane is stored in aluminum foil at −5° C. until use.
Skin flux experiments were conducted in two-compartment glass diffusion cells with a modified Franz design. The receiver compartment was filled with water or an aqueous buffer appropriate to maintain sink conditions for the drug. All receiver media included 0.02% (w/w) sodium azide to inhibit bacterial growth. […]
At predetermined sampling intervals, the entire volume of the receiver compartment solution was collected for drug quantification, and the receiver compartment was filled with fresh receiver solution, taking care to eliminate any air bubbles at the skin/solution interface.
Receiver solution samples were analyzed for drug content by HPLC with external standards of known drug concentration used for calibration. The cumulative amount of drug permeated per unit area at any time t (Qt, μg/cm^2) was determined according to the following equation: [formula] […]

[5] = in vivo; cited from earlier work
[6] = aqueous solution 2.0% w/w on 0.33 cm^2 paper disks, read-out: Zone of Inhibition

| Compound | time required for the bacterial count on the skin to be decreased by 50% [1] [s] | time required to effect a 90% reduction of bacterial count [1] [min] | zone of inhibition at 2 % strength (E3 organism [2]; [6]) [mm] | also measured |
| --- | --- | --- | --- | --- |
| CCO [70% ethanol, ethanol] | 36 | 2 |  |  |
| O=C(O)c1ccccc1 [Benzoic Acid] |  |  |  | zone of inhibition at 2 % strength (E3 organism [2]): 10 mm; zone of inhibition at 0.4 % strength (E3 organism [3]; 24 h): < 0 mm |
| OCc1ccccc1 [Benzyl Alcohol] |  |  | 10 |  |
| Cl.O=C1CC2(CCCC2)CC(=O)N1CCCCN1CCN(c2ncccn2)CC1 [Buspirone HCI] |  |  |  | % Increase in Q24 [4]: 38 (21%) |
| COC(=O)c1ccc(O)cc1 [Methyl Paraben] |  |  | 0 |  |
| benzalkonium chloride | 420 | 25 |  | Zone of Inhibition (E3 organism [2]; aqueous solution 0.4% w/w on 0.33 cm^2 paper disks): 13 mm; Zone of Inhibition (E3 organism [3]; 0.4% w/w in DuroTak 87-2888 adhesive matrix disks, 24-hour incubation): 15 mm; skin irritation [5]: severe irritation |
